Results published in patent publication US20090010886A1, “Method for the Treatment of Myeloproliferative Diseases Using(+)-2-[1-(3-Ethoxy-4-Methoxyphenyl)-2- Methylsulfonylethyl]-4- Acetylaminoisoindoline-1,3- Dione” (CELGENE CORPORATION, priority 2004, published 2009).

Test: cardiovascular and respiratory function in anesthetized dogs (safety pharmacology)
Assay type: in vivo
Conditions: anesthetized Beagle dogs, three ascending doses 400, 800 and 1,200 mg/kg/day, infusion through the jugular vein
Procedure: The pharmacological properties of 3-(3,4-dimethoxy-phenyl)-3-(1-oxo-1,3-dihydro-isoindol-2-yl)-propionamide, including activity comparisons with thalidomide, are characterized in in vitro studies. Studies examine the effects of 3-(3,4-dimethoxy-phenyl)-3-(1-oxo-1,3-dihydro-isoindol-2-yl)-propionamide on the production of various cytokines. In addition, a safety pharmacology study of 3-(3,4-dimethoxy-phenyl)-3-(1-oxo-1,3-dihydro-isoindol-2-yl)-propionamide is conducted in dogs and the effects of the compound on ECG parameters are examined further as part of three repeat-dose toxicity studies in primates.
The effects of 3-(3,4-dimethoxy-phenyl)-3-(1-oxo-1,3-dihydro-isoindol-2-yl)-propionamide on cardiovascular and respiratory function are investigated in anesthetized dogs. Two groups of Beagle dogs (2/sex/group) are used. One group receives three doses of vehicle only and the other receives three ascending doses of 3-(3,4-dimethoxy-phenyl)-3-(1-oxo-1,3-dihydro-isoindol-2-yl)-propionamide (400, 800, and 1,200 mg/kg/day). In all cases, doses of 3-(3,4-dimethoxy-phenyl)-3-(1-oxo-1,3-dihydro-isoindol-2-yl)-propionamide or vehicle are successively administered via infusion through the jugular vein separated by intervals of at least 30 minutes. […]

Compound: COc1ccc(C(CC(N)=O)N2Cc3ccccc3C2=O)cc1OC (stereo not shown) [3-(3,4-Dimethoxy-phenyl)-3-(1-oxo-1,3-dihydro-isoindol-2-yl)-propionamide]
- cardiovascular and respiratory changes compared to the vehicle control group: minimal
